Experimental data published in patent US8846675B2, “N-linked heterocyclic receptor agonists for the treatment of diabetes and metabolic disorders” (Cymabay Therapeutics, Inc., priority 2007, dated 2014).

How the values were obtained:
IC-GPCR2 [1] = molecular target: T1, IC-GPCR2 (Homo sapiens, UniProt Q8TDV5, S309L); test: Stimulation of cAMP in CHO cell line stably expressing IC-GPCR2 (HTRF cAMP dynamic kit); type: cell-based; settings: 3 μM compound; IC-GPCR2 stably expressing CHO cells; not included in Table 1
T1 construct: expressed in transfected cells
T1 sequence (Q8TDV5 1-335 S309L): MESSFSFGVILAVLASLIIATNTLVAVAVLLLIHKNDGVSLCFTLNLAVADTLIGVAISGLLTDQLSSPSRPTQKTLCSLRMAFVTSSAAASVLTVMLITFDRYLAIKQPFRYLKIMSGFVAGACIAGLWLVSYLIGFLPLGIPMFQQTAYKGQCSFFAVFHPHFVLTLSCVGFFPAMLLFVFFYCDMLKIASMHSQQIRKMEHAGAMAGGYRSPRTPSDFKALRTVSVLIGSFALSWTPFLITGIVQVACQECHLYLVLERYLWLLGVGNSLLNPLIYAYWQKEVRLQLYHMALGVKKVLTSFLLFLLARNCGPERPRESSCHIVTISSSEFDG
Method in brief: (§1)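 CHO cells stably expressing IC-GPCR2, with parental CHO as counter-screen, were exposed to compound (0.00003–10 μM) for 30 min in Ham's F12. Intracellular cAMP read by HTRF competitive immunoassay (665/620 nm ratio). Activity at 3 μM expressed as % of maximal signal from a reference agonist.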

IC-GPCR2 [2] = molecular target: T2, IC-GPCR2 (Homo sapiens, UniProt Q8TDV5); test: as above; type: cell-based; settings: 3 μM compound; relative to maximal activity of 5-Ethyl-2-{4-[4-(4-tetrazol-1-yl-phenoxymethyl)-thiazol-2-yl]-piperidin-1-yl}-pyrimidine (=100%); IC-GPCR2 stably expressing CHO cells, 30 minutes
T2 construct: expressed in transfected cells
T2 sequence (Q8TDV5 1-335 S309L): T1 sequence (Q8TDV5 1-335 S309L)
Method in brief: as §1

| activity when tested at 3 μM (in words) (IC-GPCR2 [1]) | % activity at 3 μM (IC-GPCR2 [2]) [%] | Compound |
| --- | --- | --- |
| did not exhibit activity | – | Cc1nc(C)c(S(=O)(=O)N2CCC(n3ncc(COc4ccc(-n5cnnn5)nc4)n3)CC2)s1 [Example 39, 5-(4-(4-((6-(1H-Tetrazol-1-yl)pyridin-3-yloxy)methyl)-2H-1,2,3-triazol-2-yl)piperidin-1-ylsulfonyl)-2,4-dimethylthiazole] |
| did not exhibit activity | – | Cc1noc(C)c1S(=O)(=O)N1CCC(n2ncc(COc3ccc(-n4cnnn4)nc3)n2)CC1 [Example 43, 4-(4-(4-((6-(1H-Tetrazol-1-yl)pyridin-3-yloxy)methyl)-2H-1,2,3-triazol-2-yl)piperidin-1-ylsulfonyl)-3,5-dimethylisoxazole] |
| did not exhibit activity | – | C[C@H](NC(=O)OC(C)(C)C)C(=O)N1CCC(n2ncc(COc3ccc(-n4cnnn4)nc3)n2)CC1 [Example 53, (S)-tert-Butyl 1-(4-(4-((6-(1H-tetrazol-1-yl)pyridin-3-yloxy)methyl)-2H-1,2,3-triazol-2-yl)piperidin-1-yl)-1-oxopropan-2-ylcarbamate] |
| did not exhibit activity | – | COC(=O)c1cc(C)nc(N2CCC(n3ncc(COc4ccc(-n5cnnn5)nc4)n3)CC2)n1 [Example 79, Methyl 2-(4-(4-((6-(1H-tetrazol-1-yl)pyridin-3-yloxy)methyl)-2H-1,2,3-triazol-2-yl)piperidin-1-yl)-6-methylpyrimidine-4-carboxylate] |

Second part, the molecule before the results:

| Compound | activity when tested at 3 μM (in words) (IC-GPCR2 [1]) | % activity at 3 μM (IC-GPCR2 [2]) [%] |
| --- | --- | --- |
| Cn1cnc(S(=O)(=O)N2CCC(n3ncc(COc4ccc(-n5cnnn5)nc4)n3)CC2)c1 [Example 42, 5-((2-(1-(1-Methyl-1H-imidazol-4-ylsulfonyl)piperidin-4-yl)-2H-1,2,3-triazol-4-yl)methoxy)-2-(1H-tetrazol-1-yl)pyridine] | did not exhibit activity | – |
| Cn1nc(OCc2cnn(C3CCN(c4ncc(Cl)cn4)CC3)n2)cc1C(F)(F)F [Example 97, 5-Chloro-2-{4-[4-(1-methyl-5-trifluoromethyl-1H-pyrazol-3-yloxymethyl)-[1,2,3]-triazol-2-yl]-piperidin-1-yl}-pyrimidine] | did not exhibit activity | – |
| CS(=O)(=O)c1ccc(OCc2cnn(C3CCN(c4ncc(F)cn4)CC3)n2)c(F)c1 [Example 107, 5-Fluoro-2-(4-(4-((2-fluoro-4-(methylsulfonyl)phenoxy)methyl)-2H-1,2,3-triazol-2-yl)piperidin-1-yl)pyrimidine] | – | 36.83 |
| O=C(c1ccccn1)N1CCC(n2ncc(COc3ccc(-n4cnnn4)cc3F)n2)CC1 [Example 108, (4-(4-((2-Fluoro-4-(1H-tetrazol-1-yl)phenoxy)methyl)-2H-1,2,3-triazol-2-yl)piperidin-1-yl)(pyridin-2-yl)methanone] | – | 41.78 |
| O=C(c1cccc(O)n1)N1CCC(n2ncc(COc3ccc(-n4cnnn4)cc3F)n2)CC1 [Example 109, (4-(4-((2-Fluoro-4-(1H-tetrazol-1-yl)phenoxy)methyl)-2H-1,2,3-triazol-2-yl)piperidin-1-yl)(6-hydroxypyridin-2-yl)methanone] | – | 7.45 |
| O=C(c1ncccc1O)N1CCC(n2ncc(COc3ccc(-n4cnnn4)cc3F)n2)CC1 [Example 110, (4-(4-((2-Fluoro-4-(1H-tetrazol-1-yl)phenoxy)methyl)-2H-1,2,3-triazol-2-yl)piperidin-1-yl)(3-hydroxypyridin-2-yl)methanone] | – | 1.30 |
| Cc1cccnc1C(=O)N1CCC(n2ncc(COc3ccc(-n4cnnn4)cc3F)n2)CC1 [Example 111, (4-(4-((2-Fluoro-4-(1H-tetrazol-1-yl)phenoxy)methyl)-2H-1,2,3-triazol-2-yl)piperidin-1-yl)(3-methylpyridin-2-yl)methanone] | – | 24.12 |
| O=C(c1cccnc1)N1CCC(n2ncc(COc3ccc(-n4cnnn4)cc3F)n2)CC1 [Example 112, (4-(4-((2-Fluoro-4-(1H-tetrazol-1-yl)phenoxy)methyl)-2H-1,2,3-triazol-2-yl)piperidin-1-yl)(pyridin-3-yl)methanone] | – | 42.30 |
| CCc1cnc(N2CCC(n3ccc(COc4ccc(-n5cnnn5)cc4F)n3)CC2)nc1 [Example 113, 5-Ethyl-2-(4-(3-((2-fluoro-4-(1H-tetrazol-1-yl)phenoxy)methyl)-1H-pyrazol-1-yl)piperidin-1-yl)pyrimidine] | – | 57.71 |
